Measurements from patent publication US20010051630A1, “Use of hydroxylamine derivatives, and method and preparations for increasing the tolerance of field crops against weather stresses” (priority 1997, published 2001).
Marks after values point to notes of the source that are not given here.

Tests used:
[1] = test system: Mo 17 inbred maize line; assay: CSVT (Complex Stressing Vigour Test), seeds soaked in active agent, Mo 17 maize; format: in vivo; conditions: seeds soaked in 10 mg/l active agent, * = significant vs control P < 0.05
Method: (§1) In this experiment the tolerance of maize, soybean and pepper seeds treated with the active agent against cold was tested. This test imposed temperature and oxygen deficiency stresses on the seeds and was carried out according to Barla-Szabó and Dolinka CSVT (Complex Stressing Vigour Test). For a single test, two hundred seeds were soaked for 48 hours at 25° C. and another 48 hours at 5° C in 150 ml distilled water containing the active agent in 10 mg/l concentration. Following the 96 hours of soaking, the seeds were further germinated between rolled wet paper for 96 hours at 25° C. There were 25 seeds in each roll, the rolls were placed vertically into containers and covered with a plastic bag in order to reduce evaporation. During the whole procedure the seeds were kept in darkness. At the end of the experiment the number of normally developing and ungerminated seeds were recorded. The length of the normal seedlings was measured and the average length of the five longest seedlings was calculated. Seedlings longer than 0.33 times the average length of the five longest seedlings were considered to be of high vigour, and low vigour seedlings were shorter than this length.

[2] = test system: HMv09 inbred maize line; assay: CSVT, seeds soaked in active agent, HMv09 maize; format: in vivo; conditions: seeds soaked in 10 mg/l active agent
Method: as §1

[3] = test system: Soybean seeds; assay: Pearling of soybean seeds, then CSVT; format: in vivo
Method: as §1, with “darkness.” for “darkness. At the end of the experiment the number of normally developing and ungerminated seeds were recorded. The length of the normal seedlings was measured and the average length of the five longest seedlings was calculated. Seedlings longer than 0.33 times the average length of the five longest seedlings were considered to be of high vigour, and low vigour seedlings were shorter than this length.”
(§2) At the end of the experiment the number of normally developing and ungerminated seeds were recorded. The length of the normal seedlings was measured and the average length of the five longest seedlings was calculated. Seedlings longer than 0.33 times the average length of the five longest seedlings were considered to be of high vigour, and low vigour seedlings were shorter than this length.
Soybean seeds are treated with a pearling agent, which contains 1 mg/ml of N-[3-(1-piperidinyl)propoxy]-3-nitro-benzimidoyl-chloride monohydrochloride (Compound 3) in a 5% aqueous polyvinylalcohol solution. 100 seeds and 1 ml of pearling agent are filled into a glass vessel and while the vessel is rotated, the seeds are coated with the agent and then it is left to dry. For seeds treated this way, we obtained the following results when placed under the conditions of the CSVT test described in Example 7.

[4] = test system: bean cv. Seaway; assay: Frost tolerance of beans; format: in vivo; conditions: watering, 10 mg/l; −2° C. for 8 hours
Method: Seedlings of bean cv. Seaway were cultivated under normal conditions for the first two weeks, then they were treated with 10 mg/liter and 100 mg/liter concentration solutions of the examined active agents 2 and 1 days before the initiation of the frost tolerance experiments. In the experiment, the plants were kept at −2° C. for 8 hours, then grew under normal conditions for I week, and the survival ratio was determined. 4 trays were used for each experiment and 6 seeds were planted in each tray.

[5] = test system: soybean cv. Bólyi 44; assay: Drought tolerance of soybeans; format: in vivo; conditions: 6 days hardening; 50 mg/liter in the water; 4 days without watering, one week regeneration
Method: Soybeans of soybean cv. Bólyi 44 were hardened for 6 days by withholding the water. This was followed by two days of watering, and the active agent was applied in the water. The concentration of the solution of the active agent was 50 mg/liter. After a 4-day-long cease of watering and a one week regeneration period, the number of surviving plants was recorded.
Watering was ceased for 10 days for a certain group of plants in the experiment. It was observed that almost every plant perished. Each of the 4 surviving plants had previously been treated with the active agent.

[6] = test system: bean plants (cv. Seaway); assay: Drought tolerance of beans, part b (7 days hardening); format: in vivo; conditions: 7 days without water, 10 mg/liter and 100 mg/liter solution named, table does not say which
Excerpt: Based on the experiences of our preliminary experiments, the plants were hardened before the application of the active agent by withholding the water for a few days, until the first signs of withering appeared. Then the plants were watered and the active agent was either dissolved in the water, or sprayed to the plants directly. Afterwards, the plants were subjected to different periods of drought according to the given experiment, watered again, and after a week-long regeneration period, the survival ratio was determined.
b) In this experiment, bean plants (cv. Seaway) were hardened for 7 days instead of the 5 days described in Part a. Then a 10 mg/liter and 100 mg/liter concentration solution of the active agent was applied two times a day for two days. Then 7 days without water followed, and after a week-long regeneration period, the results of the experiment were evaluated.

[7] = test system: green peppers; assay: CSVT, green peppers; format: in vivo, pepper
Method: as §1, with “darkness.” for “darkness. At the end of the experiment the number of normally developing and ungerminated seeds were recorded. The length of the normal seedlings was measured and the average length of the five longest seedlings was calculated. Seedlings longer than 0.33 times the average length of the five longest seedlings were considered to be of high vigour, and low vigour seedlings were shorter than this length.”
as §2
Under the circumstances of the CSVT test, they increased the length of the sprouts and the roots along with the proportion of the high vigour seedlings. […]

[8] = test system: maize of high chilling tolerance (HT) population; assay: CSVT, maize population of high chilling tolerance (HT); format: in vivo
Method: as §1, with “darkness.” for “darkness. At the end of the experiment the number of normally developing and ungerminated seeds were recorded. The length of the normal seedlings was measured and the average length of the five longest seedlings was calculated. Seedlings longer than 0.33 times the average length of the five longest seedlings were considered to be of high vigour, and low vigour seedlings were shorter than this length.”
as §2
(§3) In the case of a further experiment with maize of low chilling tolerance (LT) and high chilling tolerance (HT) populations [Ref: P. Landi, E. Frascaroli, A. Lovato; EUPHYTICA 64 21-29 (1992)], the following positive effects were found (Table 3.).

[9] = test system: maize of low chilling tolerance (LT) population; assay: CSVT, maize population of low chilling tolerance (LT); format: in vivo
Method: as §1, with “darkness.” for “darkness. At the end of the experiment the number of normally developing and ungerminated seeds were recorded. The length of the normal seedlings was measured and the average length of the five longest seedlings was calculated. Seedlings longer than 0.33 times the average length of the five longest seedlings were considered to be of high vigour, and low vigour seedlings were shorter than this length.”
as §2, §3

[10] = test system: McCall soybeans; assay: CSVT, McCall soybeans; format: in vivo, soybean
Method: as §1, with “darkness.” for “darkness. At the end of the experiment the number of normally developing and ungerminated seeds were recorded. The length of the normal seedlings was measured and the average length of the five longest seedlings was calculated. Seedlings longer than 0.33 times the average length of the five longest seedlings were considered to be of high vigour, and low vigour seedlings were shorter than this length.”
as §2
When applying the CSVT test, the following results were obtained (Table 4.).

[11] = 100 seeds pearled with 1 ml of 1 mg/ml in 5% PVA

Cl.O=[N+]([O-])c1cccc(C(Cl)=NOCCCN2CCCCC2)c1 [Compound 3, N-[3-(1-piperidinyl)propoxy]-3-nitro-benzimidoyl-chloride monohydrochloride]
Ratio of high vigour plants (%) [1]: 28* %
Ratio of high vigour plants (%) [2]: 40* %
Ratio of high vigour plants (%), root [3, 11]: 58* %
Ratio of high vigour plants (%), sprout [3, 11]: 63* %
effect on ratio of high vigour plants and length of sprouts and roots ([3]; PVA solution containing Compound 3 as pearling agent): increase the ratio of high vigour plants significantly
Survival (%) [4]: 40* %
Survival (%) [5]: 33* %
Survival (%) [6]: 39* %
Ratio of high vigour plants (%) [7]: 45* %
Ratio of high vigour plants %, HT [8]: 94* %
Ratio of high vigour plants %, LT [9]: 88* %
Ratio of high vigour plants (%) [10]: 46* %
